# Source: ChEMBL document CHEMBL1201862, “PubChem BioAssay data set” (2004)
#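 Values below derive from 48-hour exposures of cells grown in 96-well plates, with endpoints linearly interpolated between the two concentrations bracketing the appropriate inhibition level. GI50: concentration for 50% inhibition of growth.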 Calls of active or inactive are those of the source. Rule as the data show it: active = GI50 up to about 1.1 µM and inactive = higher.
# How the values were obtained:
# Experiment in all cases: NCI anticancer screen, dose series, 48 h
# A498 = system: A498
# A549 = system: A549
# ACHN = system: ACHN
# COLO 205 = system: COLO 205
# DMS-273 = system: DMS-273
# EKVX = system: EKVX
# HCT-116 = system: HCT-116
# HCT-15 = system: HCT-15
# HL-60 = system: HL-60
# HOP-18 = system: HOP-18
# HOP-92 = system: HOP-92
# HT-29 = system: HT-29
# IGROV-1 = system: IGROV-1
# KM-20L2 = system: KM-20L2
# KM12 = system: KM12
# LOX IMVI = system: LOX IMVI
# LXFL 529 = system: LXFL 529
# M14 = system: M14
# M19-MEL = system: M19-MEL
# MOLT-4 = system: MOLT-4
# Malme-3M = system: Malme-3M
# NCI-H23 = system: NCI-H23
# NCI-H460 = system: NCI-H460
# NCI-H522 = system: NCI-H522
# OVCAR-3 = system: OVCAR-3
# OVCAR-4 = system: OVCAR-4
# OVCAR-5 = system: OVCAR-5
# RPMI-8226 = system: RPMI-8226
# SF-268 = system: SF-268
# SF-539 = system: SF-539
# SK-MEL-28 = system: SK-MEL-28
# SK-MEL-2 = system: SK-MEL-2
# SK-MEL-5 = system: SK-MEL-5
# SN12C = system: SN12C
# SNB-75 = system: SNB-75
# SW-620 = system: SW-620
# TK-10 = system: TK-10
# UACC-257 = system: UACC-257
# UACC-62 = system: UACC-62
# UO-31 = system: UO-31
# CCRF-CEM = system: CCRF-CEM
# DLD-1 = system: DLD-1
# DMS-114 = system: DMS-114
# RXF 393 = system: RXF 393
# SK-OV-3 = system: SK-OV-3
# SR = system: SR
# 786-0 = system: 786-0
# CAKI-1 = system: CAKI-1
# HCC 2998 = system: HCC 2998
# HOP-62 = system: HOP-62
# K562 = system: K562
# NCI-H226 = system: NCI-H226
# OVCAR-8 = system: OVCAR-8
# SF-295 = system: SF-295
# SNB-19 = system: SNB-19
# U-251 = system: U-251
structure (smiles),measurement,setting,value
Cc1c2cc[n+](C)cc2c(C)c2c1[nH]c1ccc(OC(C)C)cc12,GI50,A498,12 µM (inactive)
same,GI50,A549,3.44 µM (inactive)
same,GI50,ACHN,16.1 µM (inactive)
same,GI50,COLO 205,1.39 µM (inactive)
same,GI50,DMS-273,2.69 µM (inactive)
same,GI50,EKVX,5.06 µM (inactive)
same,GI50,HCT-116,3.77 µM (inactive)
same,GI50,HCT-15,> 58.2 µM
same,GI50,HL-60,2.43 µM (inactive)
same,GI50,HOP-18,3.75 µM (inactive)
same,GI50,HOP-92,3.01 µM (inactive)
same,GI50,HT-29,4.25 µM (inactive)
same,GI50,IGROV-1,2.55 µM (inactive)
same,GI50,KM-20L2,4.72 µM (inactive)
same,GI50,KM12,2.75 µM (inactive)
same,GI50,LOX IMVI,6.95 µM (inactive)
same,GI50,LXFL 529,0.875 µM (active)
same,GI50,M14,10.4 µM (inactive)
same,GI50,M19-MEL,2.09 µM (inactive)
same,GI50,MOLT-4,5.18 µM (inactive)
same,GI50,Malme-3M,1.97 µM (inactive)
same,GI50,NCI-H23,2.51 µM (inactive)
same,GI50,NCI-H460,2.6 µM (inactive)
same,GI50,NCI-H522,1.98 µM (inactive)
same,GI50,OVCAR-3,3.1 µM (inactive)
same,GI50,OVCAR-4,3.85 µM (inactive)
same,GI50,OVCAR-5,12.9 µM (inactive)
same,GI50,RPMI-8226,7.74 µM (inactive)
same,GI50,SF-268,0.418 µM (active)
same,GI50,SF-539,1.01 µM (active)
same,GI50,SK-MEL-28,4.42 µM (inactive)
same,GI50,SK-MEL-2,2.56 µM (inactive)
same,GI50,SK-MEL-5,1.48 µM (inactive)
same,GI50,SN12C,0.542 µM (active)
same,GI50,SNB-75,0.384 µM (active)
same,GI50,SW-620,3.12 µM (inactive)
same,GI50,TK-10,39.3 µM (inactive)
same,GI50,UACC-257,2.82 µM (inactive)
same,GI50,UACC-62,2.71 µM (inactive)
same,GI50,UO-31,27.3 µM (inactive)
CCOC(=O)CNC(=O)C(CSC(=O)N(C)O)NC(=O)CCC(N)C(=O)O (stereo unspecified),GI50,ACHN,653 µM (inactive)
same,GI50,CCRF-CEM,1.02 µM (active)
same,GI50,COLO 205,0.735 µM (active)
same,GI50,DLD-1,0.656 µM (active)
same,GI50,DMS-114,0.968 µM (active)
same,GI50,DMS-273,0.75 µM (active)
same,GI50,HCT-116,1.75 µM (inactive)
same,GI50,HCT-15,> 1000 µM
same,GI50,HL-60,659 µM (inactive)
same,GI50,HOP-18,462 µM (inactive)
same,GI50,HOP-92,348 µM (inactive)
same,GI50,HT-29,0.891 µM (active)
same,GI50,LOX IMVI,0.658 µM (active)
same,GI50,OVCAR-5,436 µM (inactive)
same,GI50,RPMI-8226,908 µM (inactive)
same,GI50,RXF 393,498 µM (inactive)
same,GI50,SK-MEL-28,927 µM (inactive)
same,GI50,SK-MEL-2,378 µM (inactive)
same,GI50,SK-OV-3,684 µM (inactive)
same,GI50,SR,0.644 µM (active)
same,GI50,SW-620,> 1000 µM (inactive)
same,GI50,TK-10,655 µM (inactive)
Cc1cc(C=O)c2c(=O)c3c(O)ccc(/C=C/C(C)C)c3oc2c1,GI50,786-0,39.8 µM (inactive)
same,GI50,A549,> 100 µM (inactive)
same,GI50,ACHN,46.3 µM (inactive)
same,GI50,CAKI-1,64.7 µM (inactive)
same,GI50,CCRF-CEM,> 10 µM (inactive)
same,GI50,COLO 205,> 100 µM (inactive)
same,GI50,DLD-1,70.1 µM (inactive)
same,GI50,DMS-114,41.4 µM (inactive)
same,GI50,DMS-273,48.3 µM (inactive)
same,GI50,HCC 2998,> 100 µM (inactive)
same,GI50,HCT-116,20.9 µM (inactive)
same,GI50,HCT-15,30.5 µM
same,GI50,HL-60,28.3 µM (inactive)
same,GI50,HOP-62,> 100 µM (inactive)
same,GI50,HOP-92,68.9 µM (inactive)
same,GI50,HT-29,> 100 µM (inactive)
same,GI50,IGROV-1,52.4 µM (inactive)
same,GI50,K562,39.8 µM (inactive)
same,GI50,KM-20L2,> 100 µM (inactive)
same,GI50,KM12,86.9 µM (inactive)
same,GI50,LXFL 529,43.4 µM (inactive)
same,GI50,M14,42.1 µM (inactive)
same,GI50,M19-MEL,36.7 µM (inactive)
same,GI50,MOLT-4,28.9 µM (inactive)
same,GI50,Malme-3M,> 100 µM (inactive)
same,GI50,NCI-H226,> 100 µM (inactive)
same,GI50,NCI-H23,46.7 µM (inactive)
same,GI50,NCI-H460,> 100 µM (inactive)
same,GI50,NCI-H522,28.7 µM (inactive)
same,GI50,OVCAR-3,43.2 µM (inactive)
same,GI50,OVCAR-4,31.4 µM (inactive)
same,GI50,OVCAR-5,> 100 µM (inactive)
same,GI50,OVCAR-8,65.2 µM (inactive)
same,GI50,RPMI-8226,23.1 µM (inactive)
same,GI50,SF-268,41.9 µM (inactive)
same,GI50,SF-295,> 100 µM (inactive)
same,GI50,SF-539,> 100 µM (inactive)
same,GI50,SK-MEL-28,37.9 µM (inactive)
same,GI50,SK-MEL-2,> 100 µM (inactive)
same,GI50,SK-MEL-5,65.5 µM (inactive)
same,GI50,SNB-19,> 100 µM (inactive)
same,GI50,SNB-75,95.1 µM (inactive)
same,GI50,SR,26.7 µM (inactive)
same,GI50,SW-620,28.1 µM (inactive)
same,GI50,TK-10,> 100 µM (inactive)
same,GI50,U-251,41.1 µM (inactive)
same,GI50,UACC-257,> 100 µM (inactive)
same,GI50,UACC-62,56.8 µM (inactive)
same,GI50,UO-31,> 100 µM (inactive)
